These results are taken from patent US20090209517A1, “Use of 5H-dibenz/b,f/azepine-5-carboxamide derivatives in the treatment of neuropathic pain and neurological disorders” (priority 2006, published 2009).

The subject of data set [1] is Mice (NMRI). The following applies: mouse, in vivo.
Data set [2] is described as follows: Rotarod test (motor impairment). The format is in vivo, mice. Conditions: male, mouse, in vivo, ip; intraperitoneally, 15 min after administration, 15 r.p.m. The protocol: (§1) A normal mouse can maintain its equilibrium for long periods in the rotating rod. Mice were examined for motor toxicity in the rotating rod apparatus (Accelerator Rota-Rod [Jones & Roberts] 7650; Ugo Basile). The motor performance of naive mice (male Charles River, weighing 30 to 35 g) was evaluated 15 min after the administration of the compounds to be tested. Animals were placed on the rotating rod at a speed of 15 r.p.m. In a drug-treated mouse the neurological deficit is indicated by the inability of the animal to maintain equilibrium for 1 min in each of three trials. ESL, CBZ, OXC and R-Lic were dissolved in dimethyl sulfoxide (DMSO) (2 ml/kg) and given intraperitoneally (see ROGAWSKI, M. A., […], S., JONES, S. M., RICE, K. C., […], A. & MONN, J. A. (1991). Anticonvulsant activity of the low-affinity uncompetitive N-methyl-D-aspartate antagonist (+−)-5-aminocarbonyl-10,11-dihydro-5H-dibenzo[a,d]cyclohepten-5,10-imine (ADCI): comparison with the structural analogs dizocilpine (MK-801) and carbamazepine. J Pharmacol Exp Ther, 259, 30-37).

In data set [3] the test system is Mice (NMRI). The data set can be described thus: Formalin paw test (licking time). Conditions: for Formalin paw test licking time (s) at 100 mg/kg: 100 mg/kg p.o., 60 min before test, vehicle-treated mice 81.0±13.8 s; for Effect on licking in the formalin test at 300 mg/kg: 300 mg/kg p.o.; for ED50: Mus musculus, po, doses 10-300 mg/kg, FIG. 1, read-out: ED50 for reduction of licking time in the formalin paw test. The format is in vivo. The protocol:
The method, which detects analgesic/anti-inflammatory activity, follows that described by Wheeler-Aceto et al (see WHEELER-ACETO, H. & A., C. (1991), “Standardization of the rat paw formalin test for the evaluation of analgesics”, Psychopharmacology, 104, 35-44). Mice (NMRI) were given an intraplantar injection of 5% formalin (25 μl) into the posterior left paw. […] The time spent licking was counted for 15 minutes, beginning 15 minutes after injection of formalin. 10 mice were studied per group. The test was performed blind. ESL and CBZ were tested at the doses of 10, 30, 100 and 300 mg/kg p.o., and OXC and R-Lic were tested at the doses of 100 and 300 mg/kg p.o., administered 60 minutes before the test (i.e. 45 minutes before formalin), and compared with a vehicle control group in each experiment.

Data set [4] concerns voltage-gated sodium channel (VGSC). Conditions: cited from earlier work.
In data set [5] the test system is voltage-sensitive sodium channels. Briefly: [3H]BTX displacement binding to whole brain membranes. Conditions: FIG. 3; for Degree of interaction with site 2 in voltage-gated sodium channels, relative to oxcarbazepine: [3H]-BTX displacement. The protocol:
Blockade of voltage-sensitive sodium channels was studied by investigating [3H]batrachotoxinin A […] ([3H]BTX) displacement binding to whole brain membranes. Animals were decapitated and their brains quickly removed. Membrane preparation and binding assays were performed essentially as previously described (Shimidzu et al., 1997). Brains (without cerebellum) were homogenised in 10 vol 0.32 M sucrose, 1 mM EDTA, 1 mg/ml bovine serum albumin (BSA), 5 mM HEPES/TRIS pH 7.4 with a Teflon homogeniser (8 strokes at 400 r.p.m). After a 10 min centrifugation at 1,000 g the supernatants were centrifuged for 20 min at 39,000 g and pellets were homogenised with 20 vol or 40 vol Na+-free buffer, respectively for [3H]-batrachotoxinin A 20-alpha-benzoate ([3H]-BTX) binding assays. Na+-free buffer had the following composition (in mM): 130 choline chloride, 0.8 MgSO4, 5.4 KCl, 5.5 D-glucose, 50 HEPES/TRIS, pH 7.4. The homogenate was centrifuged for 20 min at 39,000 g and the resultant pellets were resuspended in Na+-free buffer. Protein concentration in membrane preparations was determined with BioRad Protein Assay (BioRad) using a standard curve of BSA (50-250 μg/ml). In [3H]-BTX binding assay experiments membrane preparations (200 μg protein) were incubated for 1 h at 37° C. with 10 nM (inhibition experiments) or 1-200 nM (saturation experiments) [3H]-BTX in Na+-free buffer containing 2 μM scorpion toxin, 1 μM tetrodotoxin and 1 mg/ml BSA in 96-well EIA/RIA plates (COSTAR). In inhibition experiments the reaction buffer contained also 3-1000 μM of test drugs. Nonspecific binding was determined in the presence of 300 μM veratridine. Nonspecific binding was 26±2% of total binding at 10 nM [3H-BTX]. After incubation the reaction was terminated by vacuum filtration (Brandel 96 harvester) through glassfiber filtermats (Wallac). […] Filtermats were dried, impregnated with MeltiLex A scintillation mixture (Wallac), inserted into plastic sample bags (Wallac) and radioactivity determined in a Microbeta 1224-510 counter (Wallac).

The conditions of data set [6]: humans; subject-dependent; cited from earlier work.
For data set [7], the system named is naive mice (male Charles River). Briefly: Rotarod test (motor impairment). The format is in vivo. The following applies: intraperitoneally, 15 min after administration, 15 r.p.m. The protocol:
as §1

Read-outs that look alike come from different tables or passages of the source.

For orientation: ED50 means the dose that gives a 50% effect, or the effect in half of the subjects. With `NC(=O)N1c2ccccc2C=Cc2ccccc21` [CBZ, carbamazepine, reference compound], in the data set on Mice (NMRI) [1] (NMRI), the “Sedation (%) at 300 mg/kg” value stood at 100% and the “Sedation observed (mice sedated / mice given)” value is 10/10. The compound further came in with an ED50 at 15 min in data set [2] of 29.7 mg/kg. Besides, in the data set on Mice (NMRI) [3], the “Formalin paw test licking time (s) at 100 mg/kg” value (“Formalin paw test licking time” for short) is on record as 5.3 s, the “Effect on licking in the formalin test at 300 mg/kg” value is listed as “abolished licking” and the ED50 was 38.2 mg/kg.

For the compound `CC(=O)O[C@H]1Cc2ccccc2N(C(N)=O)c2ccccc21` [ESL, S-(−)-10-acetoxy-10,11-dihydro-5H-dibenz/b,f/azepine-5-carboxamide], in the data set on Mice (NMRI) [1] (NMRI), the “Sedation (%) at 300 mg/kg” value came to 10% and the “Sedation observed (mice sedated / mice given)” value was 1/10. Further, in data set [4], the “Affinity for the resting state of the channel relative to CBZ” value is on record as “about 3 fold lower”. Also, the ED50 at 15 min in data set [2] was found to be 139 mg/kg. In the data set on Mice (NMRI) [3], the “Formalin paw test licking time” value turned out to be 33.6 s, the “Effect on licking in the formalin test at 300 mg/kg” value is on record as “abolished licking” and the ED50 stood at 69.7 mg/kg.

Consider `NC(=O)N1c2ccccc2CC(=O)c2ccccc21` [Oxc, oxcarbazepine, reference compound], for which the “Sedation (%) at 300 mg/kg” value in the data set with Mice (NMRI) [1] (NMRI) came to 90%. Further, the ED50 at 15 min in data set [2] stood at 50.2 mg/kg. Besides, the “Formalin paw test licking time” value with Mice (NMRI) [3] came out at 1 s.

With `NC(=O)N1c2ccccc2C[C@@H](O)c2ccccc21` [R-Lic, R-licarbazepine], the “Sedation (%) at 300 mg/kg” value with Mice (NMRI) [1] turned out to be 20%. For the same compound, in data set [5], the “Ability to displace [3H]-BTX from its binding site in whole brain membranes, compared with oxcarbazepine” value was “reduced ability to displaced” and the “Degree of interaction with site 2 in voltage-gated sodium channels, relative to oxcarbazepine” value is on record as “approximately 2.5 times less”. For the same compound, the “Proportion in which the enantiomer is formed as metabolite of oxcarbazepine” value in data set [6] is reported as roughly 20%. Besides, the “Rotarod test ED50 values” in data set [7] was 97.4 mg/kg. For the same compound, the “Formalin paw test licking time” value with Mice (NMRI) [3] came out at 36.7 s.

`NC(=O)N1c2ccccc2C[C@H](O)c2ccccc21` [S-Lic, S-licarbazepine]: in data set [5], the “Degree of interaction with site 2 in voltage-gated sodium channels, relative to oxcarbazepine” value is on record as “approximately 2.5 times less”. The “Proportion in which the enantiomer is formed as metabolite of oxcarbazepine” value in data set [6] is “approximately 80%”.
